System: NOMO1
Assay: cell viability relative to DMSO control; higher = less cytotoxic
Details: 48 h
Summary of the method: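 Viability values are per-plate percentages of DMSO wells, with background from cell-free wells. Library compounds in DMSO were pin-dosed, in an 11-point threefold series from 47 μM to 0.79 nM, onto NOMO1 or SEM (500 cells/well) or P12-Ichikawa (1000 cells/well) leukemia cells in 1536-well plates (5 μl). Those cells had been adapted for at least four passages in each medium, and CellTiter-Glo One luminescence was read after 48 h at 37°C.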

[1] = HPLM + 10% dialyzed FBS, 0.000781 µM
[2] = HPLM + 10% dialyzed FBS, 0.00234 µM
[3] = HPLM + 10% dialyzed FBS, 0.00702 µM
[4] = HPLM + 10% dialyzed FBS, 0.0211 µM
[5] = HPLM + 10% dialyzed FBS, 0.0632 µM
[6] = HPLM + 10% dialyzed FBS, 0.19 µM
[7] = HPLM + 10% dialyzed FBS, 0.569 µM
[8] = HPLM + 10% dialyzed FBS, 1.71 µM
[9] = HPLM + 10% dialyzed FBS, 5.12 µM
[10] = HPLM + 10% dialyzed FBS, 15.4 µM
[11] = HPLM + 10% dialyzed FBS, 46.1 µM
[12] = RPMI 5 mM glucose + 10% FBS, 0.000781 µM
[13] = RPMI 5 mM glucose + 10% FBS, 0.00234 µM
[14] = RPMI 5 mM glucose + 10% FBS, 0.00702 µM
[15] = RPMI 5 mM glucose + 10% FBS, 0.0211 µM
[16] = RPMI 5 mM glucose + 10% FBS, 0.0632 µM
[17] = RPMI 5 mM glucose + 10% FBS, 0.19 µM
[18] = RPMI 5 mM glucose + 10% FBS, 0.569 µM
[19] = RPMI 5 mM glucose + 10% FBS, 1.71 µM
[20] = RPMI 5 mM glucose + 10% FBS, 5.12 µM
[21] = RPMI 5 mM glucose + 10% FBS, 15.4 µM
[22] = RPMI 5 mM glucose + 10% FBS, 46.1 µM
[23] = RPMI 5 mM glucose + 10% dialyzed FBS, 0.000781 µM
[24] = RPMI 5 mM glucose + 10% dialyzed FBS, 0.00234 µM
[25] = RPMI 5 mM glucose + 10% dialyzed FBS, 0.00702 µM
[26] = RPMI 5 mM glucose + 10% dialyzed FBS, 0.0211 µM
[27] = RPMI 5 mM glucose + 10% dialyzed FBS, 0.0632 µM
[28] = RPMI 5 mM glucose + 10% dialyzed FBS, 0.19 µM
[29] = RPMI 5 mM glucose + 10% dialyzed FBS, 0.569 µM
[30] = RPMI 5 mM glucose + 10% dialyzed FBS, 1.71 µM
[31] = RPMI 5 mM glucose + 10% dialyzed FBS, 5.12 µM
[32] = RPMI 5 mM glucose + 10% dialyzed FBS, 15.4 µM
[33] = RPMI 5 mM glucose + 10% dialyzed FBS, 46.1 µM

Structure (SMILES)	cell viability [1] [%]	cell viability [2] [%]	cell viability [3] [%]	cell viability [4] [%]	cell viability [5] [%]	cell viability [6] [%]	cell viability [7] [%]	cell viability [8] [%]	cell viability [9] [%]	cell viability [10] [%]	cell viability [11] [%]	cell viability [12] [%]	cell viability [13] [%]	cell viability [14] [%]	cell viability [15] [%]	cell viability [16] [%]	cell viability [17] [%]	cell viability [18] [%]	cell viability [19] [%]	cell viability [20] [%]	cell viability [21] [%]	cell viability [22] [%]	cell viability [23] [%]	cell viability [24] [%]	cell viability [25] [%]	cell viability [26] [%]	cell viability [27] [%]	cell viability [28] [%]	cell viability [29] [%]	cell viability [30] [%]	cell viability [31] [%]	cell viability [32] [%]	cell viability [33] [%]
COc1ccc([C@@H]2CC(=O)c3c(O)cc(O[C@@H]4O[C@H](CO[C@@H]5O[C@@H](C)[C@H](O)[C@@H](O)[C@H]5O)[C@@H](O)[C@H](O)[C@H]4O)cc3O2)cc1O	106	104	121	111	115	97.7	112	123	117	109	117	102	100	121	117	105	105	110	102	108	124	120	94.3	101	115	122	124	107	123	116	114	114	104
COC(=O)C1C2CC3c4[nH]c5cc(OC)ccc5c4CCN3CC2CC(OC(=O)c2cc(OC)c(OC)c(OC)c2)C1OC (stereo unspecified)	108	123	101	125	119	112	115	106	112	102	81.3	106	94.6	107	103	95.2	104	93.4	94.1	96.4	95.7	90.2	105	101	103	93.8	92.1	98.2	98.5	105	102	112	82.9
CN1CCN2c3ncccc3Cc3ccccc3C2C1 (stereo unspecified)	121	112	141	118	138	114	123	135	33.4	98.9	108	101	105	110	112	103	103	116	110	29.5	98.8	112											
CC[C@]12\C=C/CN3CC[C@]4([C@@H](N(C)C5=CC(=C(C=C45)[C@]6(C[C@H]7C[C@H](CN(C7)CC8=C6[NH]C9=C8C=CC=C9)C(C)(F)F)C(=O)OC)OC)[C@](O)([C@@H]1OC(C)=O)C(=O)OC)[C@H]23	102	102	97.5	72.8	28.2	28.1	36	38.6	36.8	36.1	28.7	95	96.9	91.9	85.2	24.5	18.5	21.6	22.3	22.3	23.7	20.1	91.5	92.4	91.6	93.7	57.5	30.6	24.2	26.3	27.5	26.8	20.8
